Drawing on US11291655B2, “RAD51 inhibitors” (Cyteir Therapeutics, Inc., priority 2017, dated 2022), this text covers EC50 for 46 compounds.

The structures appear in SMILES notation.

For this experiment, the system named is Daudi Cell Culture. As to the kind of experiment: Compound primary screening in Daudi cell culture. The format is cell-based. The following applies: Homo sapiens, 168 h; Daudi cells, 1250 cells per well, reads on Day 7. The procedure: Compound Primary Screening
1. Materials and Supplies
Plastic ware and consumables needed for this experiment include: Cell Culture media; Evaporation Buffer media; 100% DMSO; 96 well U-bottom sterile culture plates; 250 mL bottle; 1.5 mL Opaque amber epi tubes; Epi Tube rack; 300 mL reservoirs; 25 mL reservoir; 25 mL serological pipette tips; 5 mL serological pipette tips P1000 Pipette Tips; and P200 Pipette Tips.
Equipment needed for this experiment include: Viaflo 384 liquid handler; Eppendorf serological pipette; Eppendorf P1000 Pipette; and Eppendorf P200 Pipette
Daudi Cell Culture is also needed for this experiment.
Lastly, compounds (e.g., the compounds of this invention) to be tested are needed.
All steps were performed in a sterile environment inside the Biosafety cabinet.
A 96 well u-bottom plate was prepared by writing the experiment number, plate number, date and initials in the top right corner of the plate lid. With a sterile 300 ml reservoir, and 25 ml serological pipette, evaporation buffer media was pipetted into reservoir in 25 ml increments. Using the liquid handler, 150 ul of evaporation buffer media was pipetted from reservoir into rows A and H, and Columns 1 and 12 of the 96 well u-bottom plate. Cell cultures were counted to obtain the density of cells per ml, and the culture viability. The cell density information was used to obtain 1,000,000 cells from culture using a 5 mL serological pipette into an epi tube. The cell density information from the culture was used to calculate the number of cells and volume of media needed for the assay to seed 1250 cells in 130 ul of media per available culture well in the 96 well u-bottom plate. Rows B through F were used for cells (50 wells in total), with row G left for an empty media control. The calculation was overestimated by 10 mL to account for the dead volume in the 300 ml reservoir. Once the media volume was calculated, the appropriate volume of media was pipetted in 25 mL increments into the 250 mL bottle using a 25 mL serological pipette. The 250 ml bottle was capped tightly, and placed into a 37° C. water bath for 2 minutes. While the culture media was warming, 10 mL of fresh media was pipetted from the 500 mL culture media bottle into a sterile 25 mL reservoir. Using the Eppendorf multichannel pipette, 130 ul of media was pipetted from the 25 mL reservoir into row G of the 96 well u-bottom plate. Once the 250 mL bottle of media was warmed, the volume of culture needed was pipetted into the bottle, and mixed gently with a 25 mL serological pipette as to not create bubbles, and then the contents of the bottle were pipetted into a new 300 mL reservoir. Using the liquid handler, 130 ul of culture was pipetted from the 300 mL reservoir into rows B through F of the 96 well u-bottom plate. Once the culture was added, the plate was placed into a 37° C. incubator until the compound master plate was prepared for use.
Two 96 well u-bottom plates were prepared by writing the master plate name in the upper right corner of the plate lid. Labeling one DMSO master and the other Media Master. The compounds of interest were obtained from the laboratory freezer, and placed into a 25 well storage box with a lid, and set the box aside. The compounds were vortexed after thawing but before use. Using an automatic multichannel pipette, 20 ul of 100% DMSO was pipetted into wells B3-B11 through G3-G11 of the DMSO master plate. For each compound on the master plate, 50 ul of the compound were pipetted in the appropriate well of row 2 (reference plate map to determine appropriate well). A serial dilution was prepared beginning by aspirating 20 ul from row 2 and mixing with row 3, repeating until row 11 was reached. Using the liquid handler, 194 ul of Daudi media was dispensed into wells B2-B11 through G2-G11 of the Media master plate. Using the liquid handler, 6 ul from the DMSO master plate was aspirated and dispensed into the media master plate, mixing 100 ul twice. […]

In general, EC50 refers to the concentration giving half of the maximal effect. Turning to `CC(C)OC(=O)Nc1ccc(-c2ncc(-c3ccc(NC(=O)NCc4ccccc4)cc3S(=O)(=O)NC(C)(C)C)s2)cc1` [Compound A2], the concentration giving a half-maximal response (EC50) was below 1 µM.

As for `CC(=O)Nc1ccc(-c2cnc(-c3ccc(NC(=S)NC(C)C)cc3)s2)c(S(=O)(=O)N2CCNCC2)c1` [Compound A3], the EC50 is below 5 µM.

The compound `CC(=O)Nc1ccc(-c2cnc(-c3ccc(N)cc3)s2)c(S(=O)(=O)NC(C)(C)C)c1` [Compound A4] came in with a half-maximal effective concentration (EC50) below 10 µM.

As to `CC(=O)Nc1ccc(-c2cnc(-c3ccc(OC(=O)NC(C)C)cc3)s2)c(S(=O)(=O)NC(C)(C)C)c1` [Compound A5], the concentration giving a half-maximal response (EC50) was below 5 µM.

Compound `CC(C)OC(=O)Nc1ccc(-c2ncc(-c3ccc(-c4cnc[nH]4)cc3S(=O)(=O)NC(C)(C)C)s2)cc1` [Compound A6] showed a concentration giving a half-maximal response (EC50) below 5 µM.

With `CC(C)N(C)C(=O)Nc1ccc(-c2ncc(-c3ccc(N4CCCC4=O)cc3S(=O)(=O)NC(C)(C)C)s2)cc1` [Compound A7], the EC50 is below 10 µM.

The compound `CC(C)OC(=O)Nc1ccc(-c2ncc(-c3ccc(NC(=O)OCCO)cc3S(=O)(=O)NC(C)(C)C)s2)cc1` [Compound B1] displayed a half-maximal effective concentration (EC50) below 5 µM.

The compound `COCCOC(=O)Nc1ccc(-c2cnc(-c3ccc(NC(=O)OC(C)C)cc3)s2)c(S(=O)(=O)NC(C)(C)C)c1` [Compound B2] displayed an EC50 below 1 µM.

`CC(C)OC(=O)Nc1ccc(-c2ncc(-c3ccc(NC(=O)OCc4ccccn4)cc3S(=O)(=O)NC(C)(C)C)s2)cc1` [Compound B3] returned a concentration for a half-maximal effect (EC50) below 1 µM.

In the case of `CC(C)OC(=O)Nc1ccc(-c2ncc(-c3ccc(NC(=O)OCc4ccncc4)cc3S(=O)(=O)NC(C)(C)C)s2)cc1` [Compound B4], the EC50 is below 1 µM.

The compound `C=C(C)COC(=O)Nc1ccc(-c2cnc(-c3ccc(NC(=O)OC(C)C)cc3)s2)c(S(=O)(=O)NC(C)(C)C)c1` [Compound B5] came in with an EC50 below 1 µM.

Compound `CC(C)OC(=O)Nc1ccc(-c2ncc(-c3ccc(NC(=O)CCc4ccccc4)cc3S(=O)(=O)NC(C)(C)C)s2)cc1` [Compound B6] registered a concentration for a half-maximal effect (EC50) below 1 µM.

With `CC(C)OC(=O)Nc1ccc(-c2ncc(-c3ccc(NC(=O)OCC4CCCN4)cc3S(=O)(=O)NC(C)(C)C)s2)cc1` (stereo not shown) [Compound B7], the EC50 was below 5 µM.

Turning to `CC(C)OC(=O)Nc1ccc(-c2ncc(-c3ccc(NC(=O)OCCc4ccccc4)cc3S(=O)(=O)NC(C)(C)C)s2)cc1` [Compound B8], the EC50 was below 1 µM.

Compound `CC(C)OC(=O)Nc1ccc(-c2ncc(-c3ccc(NC(=O)OCc4cccnc4)cc3S(=O)(=O)NC(C)(C)C)s2)cc1` [Compound B9] returned a 50% effective concentration (EC50) below 1 µM.

`CC(C)OC(=O)Nc1ccc(-c2ncc(-c3ccc(NC(=O)OCC4CCCCC4)cc3S(=O)(=O)NC(C)(C)C)s2)cc1` [Compound B10] yielded a concentration for a half-maximal effect (EC50) below 1 µM.

The compound `CC(C)OC(=O)Nc1ccc(-c2ncc(-c3ccc(NC(=O)OCc4nccs4)cc3S(=O)(=O)NC(C)(C)C)s2)cc1` [Compound B11] yielded a half-maximal effective concentration (EC50) below 1 µM.

With `C/C=C/COC(=O)Nc1ccc(-c2cnc(-c3ccc(NC(=O)OC(C)C)cc3)s2)c(S(=O)(=O)NC(C)(C)C)c1` [Compound B12], the EC50 is below 1 µM.

`CC(C)OC(=O)Nc1ccc(-c2ncc(-c3ccc(NC(=O)OCCN)cc3S(=O)(=O)NC(C)(C)C)s2)cc1` [Compound B13] registered an EC50 below 5 µM.

As for `CC(C)OC(=O)Nc1ccc(-c2ncc(-c3ccc(NC(=O)OCc4ncc[nH]4)cc3S(=O)(=O)NC(C)(C)C)s2)cc1` [Compound B14], the concentration for a half-maximal effect (EC50) was below 10 µM.

Take `CC(C)OC(=O)Nc1ccc(-c2ncc(-c3ccc(NC(=O)OC(C)c4ccccc4)cc3S(=O)(=O)NC(C)(C)C)s2)cc1` (stereo not shown) [Compound B15]: the concentration giving a half-maximal response (EC50) was below 1 µM.

Consider `CC(C)OC(=O)Nc1ccc(-c2ncc(-c3ccc(NC(=O)NC(C)c4ccccc4)cc3S(=O)(=O)NC(C)(C)C)s2)cc1` (stereo not shown) [Compound C1], for which the EC50 is below 1 µM.

`COC(=O)[C@H](Cc1ccccc1)NS(=O)(=O)c1cc(NC(C)=O)ccc1-c1cnc(-c2ccc(NC(=S)NC(C)C)cc2)s1` [Compound D1] displayed an EC50 above 10 µM.

With `COC(=O)[C@@H](NS(=O)(=O)c1cc(NC(C)=O)ccc1-c1cnc(-c2ccc(NC(=S)NC(C)C)cc2)s1)C(C)C` [Compound D2], the concentration giving a half-maximal response (EC50) is above 10 µM.

Take `CC(=O)Nc1ccc(-c2cnc(-c3ccc(NC(=S)NC(C)C)cc3)s2)c(S(=O)(=O)NCc2ccccn2)c1` [Compound D3]: the concentration giving a half-maximal response (EC50) is above 10 µM.

In the case of `CC(=O)Nc1ccc(-c2cnc(-c3ccc(NC(=S)NC(C)C)cc3)s2)c(S(=O)(=O)NCC(C)(C)CO)c1` [Compound D4], the EC50 was above 10 µM.

For `CC(=O)Nc1ccc(-c2cnc(-c3ccc(NC(=S)NC(C)C)cc3)s2)c(S(=O)(=O)N[C@@H](C)CO)c1` [Compound D5], the concentration for a half-maximal effect (EC50) was above 10 µM.

Compound `CNS(=O)(=O)c1cc(NC(C)=O)ccc1-c1cnc(-c2ccc(NC(=S)NC(C)C)cc2)s1` [Compound D6] came in with an EC50 above 10 µM.

`CC(=O)Nc1ccc(-c2cnc(-c3ccc(NC(=S)NC(C)C)cc3)s2)c(S(=O)(=O)N[C@H]2CC[C@H](O)CC2)c1` [Compound D7] returned an EC50 above 10 µM.

`CC(=O)Nc1ccc(-c2cnc(-c3ccc(NC(=S)NC(C)C)cc3)s2)c(S(=O)(=O)N2CCOCC2)c1` [Compound D8]: the EC50 is above 10 µM.

Compound `CCNS(=O)(=O)c1cc(NC(C)=O)ccc1-c1cnc(-c2ccc(NC(=S)NC(C)C)cc2)s1` [Compound D9] had a concentration for a half-maximal effect (EC50) above 10 µM.

Compound `CC(=O)Nc1ccc(-c2cnc(-c3ccc(NC(=S)NC(C)C)cc3)s2)c(S(=O)(=O)N(C)C)c1` [Compound D10] registered an EC50 below 1 µM.

Turning to `CC(=O)Nc1ccc(-c2cnc(-c3ccc(NC(=S)NC(C)C)cc3)s2)c(S(=O)(=O)NC(CO)CO)c1` [Compound D11], the EC50 was above 10 µM.

`CC(=O)Nc1ccc(-c2cnc(-c3ccc(NC(=S)NC(C)C)cc3)s2)c(S(=O)(=O)NCc2ccncc2)c1` [Compound D12]: the EC50 was above 10 µM.

With `CC(=O)Nc1ccc(-c2cnc(-c3ccc(NC(=S)NC(C)C)cc3)s2)c(S(=O)(=O)N2CCCC2)c1` [Compound D13], the EC50 was above 10 µM.

For `CC(=O)Nc1ccc(-c2cnc(-c3ccc(NC(=S)NC(C)C)cc3)s2)c(S(=O)(=O)N2CCCCC2)c1` [Compound D14], the EC50 was above 10 µM.

As to `COC(=O)[C@H](CO)NS(=O)(=O)c1cc(NC(C)=O)ccc1-c1cnc(-c2ccc(NC(=S)NC(C)C)cc2)s1` [Compound D15], the EC50 is above 10 µM.

Compound `CC(=O)Nc1ccc(-c2cnc(-c3ccc(NC(=S)NC(C)C)cc3)s2)c(S(=O)(=O)NCCN(C)C)c1` [Compound D16] displayed an EC50 above 10 µM.

Take `CC(=O)Nc1ccc(-c2cnc(-c3ccc(NC(=S)NC(C)C)cc3)s2)c(S(=O)(=O)NCCN)c1` [Compound D17]: the concentration for a half-maximal effect (EC50) was above 10 µM.

Consider `CC(=O)Nc1ccc(-c2cnc(-c3ccc(NC(=S)NC(C)C)cc3)s2)c(S(=O)(=O)N[C@H](CO)C(C)C)c1` [Compound D18], for which the 50% effective concentration (EC50) was above 10 µM.

In the case of `CC(=O)Nc1ccc(-c2cnc(-c3ccc(NC(=S)NC(C)C)cc3)s2)c(S(=O)(=O)NCc2ccccc2)c1` [Compound D19], the EC50 was above 10 µM.

In the case of `COC(=O)CNS(=O)(=O)c1cc(NC(C)=O)ccc1-c1cnc(-c2ccc(NC(=S)NC(C)C)cc2)s1` [Compound D20], the concentration giving a half-maximal response (EC50) was above 10 µM.

Consider `COC(=O)[C@H](C)NS(=O)(=O)c1cc(NC(C)=O)ccc1-c1cnc(-c2ccc(NC(=S)NC(C)C)cc2)s1` [Compound D21], for which the EC50 is above 10 µM.

As to `CC(=O)Nc1ccc(-c2cnc(-c3ccc(NC(=S)NC(C)C)cc3)s2)c(S(=O)(=O)N2C3CCC2CC3)c1` [Compound D22], the EC50 is below 1 µM.

The compound `CNCCCNS(=O)(=O)c1cc(NC(C)=O)ccc1-c1cnc(-c2ccc(NC(=S)NC(C)C)cc2)s1` [Compound D23] displayed an EC50 above 10 µM.

Compound `CC(=O)Nc1ccc(-c2cnc(-c3ccc(NC(=S)NC(C)C)cc3)s2)c(S(=O)(=O)NCCCN)c1` [Compound D24] returned an EC50 above 10 µM.
